Reference: ChEMBL document CHEMBL1122731, “Potential synthetic codeine substitutes: (-)-3-O-aryl-N-methylmorphinans” (J Med Chem, 1984)

Tests used:
Type in all cases: functional
Mus musculus [1] = experiment: Compound was tested for analgesic activity by writhing test after subcutaneous administration in mice; conditions: sc
Mus musculus [2] = experiment: Compound was tested for analgesic activity by tail-flick test after subcutaneous administration in mice; conditions: sc
Mus musculus [3] = experiment: Compound was tested for analgesic activity by tail-flick test after peroral administration in mice; conditions: po
Mus musculus [4] = experiment: Compound was tested for analgesic activity by writhing test after peroral administration in mice; conditions: po

In the case of `CN1CC[C@]23CCCC[C@H]2[C@H]1Cc1ccc(Oc2ccc(F)cc2)cc13`, the ED50 (Mus musculus [1]) is reported as 1 mg/kg and the ED50 (Mus musculus [2]) is reported as 37.3 mg/kg.

`COc1cccc(Oc2ccc3c(c2)[C@@]24CCCC[C@H]2[C@@H](C3)N(C)CC4)c1` was tested, and the ED50 (Mus musculus [1]) was 2.5 mg/kg and the ED50 (Mus musculus [2]) was 39.7 mg/kg.

For `CN1CC[C@]23CCCC[C@H]2[C@H]1Cc1ccc(Oc2ccccn2)cc13.O=C(O)C(O)C(O)C(=O)O`, the ED50 (Mus musculus [1]) was 1.1 mg/kg and the ED50 (Mus musculus [2]) was 10.1 mg/kg.

Compound `CN1CC[C@]23CCCC[C@H]2[C@H]1Cc1ccc(Oc2ccccc2)cc13.O=C(O)C(O)C(O)C(=O)O` has an ED50 (Mus musculus [1]) of 1.25 mg/kg, an ED50 (Mus musculus [3]) of 51.7 mg/kg and an ED50 (Mus musculus [2]) of 19.7 mg/kg. The ED50 (Mus musculus [4]) was 2.3 mg/kg.

`CN1CC[C@]23CCCC[C@H]2[C@H]1Cc1ccc(Oc2ccccc2F)cc13.O=C(O)C(=O)O` gave an ED50 (Mus musculus [1]) of 3 mg/kg and an ED50 (Mus musculus [2]) of 23.3 mg/kg.

For `COc1ccc(Oc2ccc3c(c2)[C@@]24CCCC[C@H]2[C@@H](C3)N(C)CC4)cc1`, the ED50 (Mus musculus [1]) was 2.1 mg/kg and the ED50 (Mus musculus [2]) was 25 mg/kg.

In the case of `COc1ccc2c3c1O[C@H]1[C@@H](O)C=C[C@H]4[C@@H](C2)N(C)CC[C@@]341.COc1ccc2c3c1O[C@H]1[C@@H](O)C=C[C@H]4[C@@H](C2)N(C)CC[C@@]341.O.O=P(O)(O)O.O=P(O)(O)O` [CODEINE PHOSPHATE], the ED50 (Mus musculus [1]) is reported as 2.3 mg/kg, the ED50 (Mus musculus [3]) is reported as 119 mg/kg and the ED50 (Mus musculus [4]) is reported as 24 mg/kg.

For `CN1CC[C@]23CCCC[C@H]2[C@H]1Cc1ccc(Oc2ccc(O)cc2)cc13.Cl`, the ED50 (Mus musculus [1]) was 1.3 mg/kg and the ED50 (Mus musculus [2]) was 6.69 mg/kg.

`Br.COc1ccc2c(c1)[C@@]13CCCCC1[C@@H](C2)N(C)CC3` (some centres not stated) [LEVOMETHORPHAN HYDROBROMIDE] showed an ED50 (Mus musculus [1]) of 0.64 mg/kg, an ED50 (Mus musculus [3]) of 5.27 mg/kg and an ED50 (Mus musculus [4]) of 1.5 mg/kg.

In the case of `CCO.CN1CC[C@]23CCCC[C@H]2[C@H]1Cc1ccc(Oc2cccc(O)c2)cc13.O=C(O)C(O)C(O)C(=O)O`, the ED50 (Mus musculus [1]) is reported as 9 mg/kg and the ED50 (Mus musculus [2]) is reported as 80.1 mg/kg.

`CN1CC[C@]23CCCC[C@H]2[C@H]1Cc1ccc(Oc2cccc(F)c2)cc13.O.O=C(O)C(O)C(O)C(=O)O` was tested, and the ED50 (Mus musculus [1]) was 1.85 mg/kg and the ED50 (Mus musculus [2]) was 71 mg/kg.

With `COc1ccccc1Oc1ccc2c(c1)[C@@]13CCCC[C@H]1[C@@H](C2)N(C)CC3` the ED50 (Mus musculus [1]) was 0.49 mg/kg and the ED50 (Mus musculus [2]) was 24.4 mg/kg.

`CCO.CN1CC[C@]23CCCC[C@H]2[C@H]1Cc1ccc(Oc2ccccc2O)cc13.O=C(O)C(O)C(O)C(=O)O` showed an ED50 (Mus musculus [1]) of 1.8 mg/kg and an ED50 (Mus musculus [2]) of 11.4 mg/kg.

In the case of `CN1CC[C@]23c4c5ccc(O)c4O[C@H]2[C@@H](O)C=C[C@H]3[C@H]1C5.CN1CC[C@]23c4c5ccc(O)c4O[C@H]2[C@@H](O)C=C[C@H]3[C@H]1C5.O=S(=O)(O)O`, the ED50 (Mus musculus [1]) is reported as 0.46 mg/kg and the ED50 (Mus musculus [3]) is reported as 31.2 mg/kg.

In the case of `CN1CC[C@]23CCCC[C@H]2[C@H]1Cc1ccc(O)cc13.O=C(O)C(O)C(O)C(=O)O`, the ED50 (Mus musculus [1]) is reported as 0.11 mg/kg, the ED50 (Mus musculus [3]) is reported as 8.5 mg/kg and the ED50 (Mus musculus [2]) is reported as 1.21 mg/kg. The ED50 (Mus musculus [4]) was 1.4 mg/kg.

For `Cc1ccc(Oc2ccc3c(c2)[C@@]24CCCC[C@H]2[C@@H](C3)N(C)CC4)cc1.Cl`, the ED50 (Mus musculus [1]) was 23 mg/kg.
